Test [1] relates to non-small cell lung cancer cell line H460. The experiment in a line: In vitro human cancer cell line cytotoxicity (proliferation) assay in H460, CellTiter-Glo, 72 hours. It is filed as cell-based. The note with it: H460 cells, DMSO condition (no AKR1C3 inhibitor), read-out: CTG H460: Avg IC50 (nM) [Assay Condition: DMSO]. In a few lines:
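H460 cells were seeded at 3×10^3 per well and grown 24 h at 37 °C, 5% CO2 before compound addition from 10 mM DMSO stocks. After 72 h further incubation, viability was measured by CellTiter-Glo, and IC50 values in nM were derived from the proliferation data.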
In general terms: Cellular ATP, detected with luciferase, serves as a proxy for viable cell number.

Test [2] has the same test system. Briefly: H460 proliferation assay in the presence of 3 uM ASP9521 (AKR1C3 specific inhibitor). It is filed as cell-based, human. The note with it: H460 cells, CellTiter-Glo, 72 hours, in the presence of 3 uM ASP9521 added 4 hours prior to compounds; read-out: CTG H460: Avg IC50 (nM) [Assay Condition: ASP9521]. In a few lines:
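H460 cells pre-incubated 24 h, then exposed to compounds for 72 h at 37 °C, 5% CO2. Viability read by CellTiter-Glo. ASP9521 (3 uM, AKR1C3 inhibitor) added 4 h before compounds.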

In general, IC50 refers to the concentration that inhibits the measured activity by half. Turning to `CN(C)C(=O)c1ccc(Oc2c([N+](=O)[O-])ccc3c2OCCC3OP(=O)(N2CC2)N2CC2)cc1` (single isomer, unassigned) [Example 130], the IC50 in test [1] (Homo sapiens, NCI-H460, 72 h) was 10 to 50 nM; in test [2] it was 389 nM.

Take `CC(C)COc1cccc(Oc2c([N+](=O)[O-])ccc3c2CCC3OP(=O)(N2CC2)N2CC2)c1` (stereo not shown) [Example 484]: the IC50 was below 10 nM in test [1] and 1990 nM in test [2].

Take `COc1cncc(Oc2c([N+](=O)[O-])ccc3c2CC[C@H]3OP(=O)(N2CC2)N2CC2)c1` [Example 462]: the IC50 in test [1] is below 10 nM; in test [2], 917 nM.

With `O=[N+]([O-])c1ccc2c(c1Oc1cccc(-c3ncccn3)c1)CCC2OP(=O)(N1CC1)N1CC1` (stereo not shown) [Example 85], the IC50 in test [1] is below 10 nM; in test [2] it was 5280 nM.

Regarding `COc1cc(Oc2c([N+](=O)[O-])ccc3c2CC[C@@H]3OP(=O)(N2CC2)N2CC2)cc(-c2ccc(F)cn2)c1` [Example 353], the IC50 was below 10 nM in test [1] (Homo sapiens, NCI-H460, 72 h) and 1010 nM in test [2].

With `O=C1c2cc(Oc3c([N+](=O)[O-])ccc4c3OCCC4OP(=O)(N3CC3)N3CC3)ccc2CN1C1CC1` (single isomer, unassigned) [Example 139], the IC50 in test [1] was below 10 nM; in test [2], 839 nM.

With `O=C(c1cccc(Oc2c([N+](=O)[O-])ccc3c2CCC3OP(=O)(N2CC2)N2CC2)c1)N1CCC(F)(F)C1` (stereo not shown) [Example 102], the IC50 in test [1] was below 10 nM; in test [2] it was 919 nM.

Turning to `Cn1cc(-c2cccc(Oc3c([N+](=O)[O-])ccc4c3CCC4OP(=O)(N3CC3)N3CC3)c2)cn1` (stereo not shown) [Example 300], the IC50 was below 10 nM in test [1] and 1890 nM in test [2].

Turning to `Cn1cc(Oc2cccc(Oc3c([N+](=O)[O-])ccc4c3CC[C@H]4OP(=O)(N3CC3)N3CC3)c2)cn1` [Example 455], the IC50 in test [1] was below 10 nM; in test [2] it was 1660 nM.

For the molecule `O=[N+]([O-])c1ccc2c(c1Oc1ccc3c(c1)OCO3)CC[C@@H]2OP(=O)(N1CC1)N1CC1` [Example 394], the IC50 was below 10 nM in test [1] (Homo sapiens, NCI-H460, 72 h) and 388 nM in test [2].

Turning to `O=[N+]([O-])c1ccc2c(c1Oc1ccc(-n3cc(F)cn3)cc1)CCC2OP(=O)(N1CC1)N1CC1` (stereo not shown) [Example 422], the IC50 is below 10 nM in test [1] and 821 nM in test [2].

For `CN1Cc2cc(Oc3c([N+](=O)[O-])ccc4c3CCC4OP(=O)(N3CC3)N3CC3)ccc2C1=O` (single isomer, unassigned) [Example 43], the IC50 is below 10 nM in test [1] and 314 nM in test [2].

For `C[C@H]1CN1P(=O)(OCc1ccc([N+](=O)[O-])c(Oc2cccc(C(=O)N(C)C)c2)c1)N1C[C@@H]1C` (stereo partly shown) [Example 207], the IC50 in test [1] (Homo sapiens, NCI-H460, 72 h) is below 10 nM; in test [2], 217 nM.

Take `CC(C)(C)c1cncc(Oc2c([N+](=O)[O-])ccc3c2CCC3OP(=O)(N2CC2)N2CC2)c1` (stereo not shown) [Example 325]: the IC50 is below 10 nM in test [1] and 608 nM in test [2].

For `O=[N+]([O-])c1ccc2c(c1Oc1ccc(-c3ccccn3)c(F)c1)CCC2OP(=O)(N1CC1)N1CC1` (stereo not shown) [Example 287], the IC50 in test [1] was below 10 nM; in test [2], 1010 nM.

Regarding `Cn1cc(-c2cccc(Oc3c([N+](=O)[O-])ccc4c3CCC4OP(=O)(N3CC3)N3CC3)c2)cn1` (single isomer, unassigned) [Example 76], the IC50 in test [1] (Homo sapiens, NCI-H460, 72 h) was 10 to 50 nM; in test [2], 1120 nM.

In the case of `CN1Cc2ccc(Oc3c([N+](=O)[O-])ccc4c3CCC4OP(=O)(N3CC3)N3CC3)cc2C1=O` (stereo not shown) [Example 23], the IC50 in test [1] (Homo sapiens, NCI-H460, 72 h) is below 10 nM; in test [2] it was 75.9 nM.

Turning to `O=[N+]([O-])c1cc2c(cc1Oc1ccc(-c3ccc(Cl)cc3)cc1)C(OP(=O)(N1CC1)N1CC1)CC2` (stereo not shown) [Example 183], the IC50 is 10 to 50 nM in test [1] and 1840 nM in test [2].

With `O=[N+]([O-])c1ccc2c(c1Oc1cccc(OC3CCC3)c1)CC[C@H]2OP(=O)(N1CC1)N1CC1` [Example 464], the IC50 is below 10 nM in test [1] and 1390 nM in test [2].

Regarding `O=C(c1ccc(Oc2cc3cc(COP(=O)(N4CC4)N4CC4)oc3cc2[N+](=O)[O-])cc1)N1CCOCC1` [Example 231], the IC50 in test [1] (Homo sapiens, NCI-H460, 72 h) was below 10 nM; in test [2] it was 278 nM.

Regarding `O=[N+]([O-])c1ccc2c(c1Oc1cccc(-c3ncc(F)cn3)c1)CCC2OP(=O)(N1CC1)N1CC1` (stereo not shown) [Example 86], the IC50 is 10 to 50 nM in test [1] (Homo sapiens, NCI-H460, 72 h) and 1230 nM in test [2].

Regarding `O=C1CCCN1c1cccc(Oc2c([N+](=O)[O-])ccc3c2CCC3OP(=O)(N2CC2)N2CC2)c1` (stereo not shown) [Example 111], the IC50 was below 10 nM in test [1] (Homo sapiens, NCI-H460, 72 h) and 1100 nM in test [2].

With `CNC(=O)c1ccc(Oc2c([N+](=O)[O-])ccc3c2OCCC3OP(=O)(N2CC2)N2CC2)cc1` (stereo not shown) [Example 136], the IC50 in test [1] was 50 to 100 nM; in test [2], 913 nM.

Take `Cc1noc(-c2cccc(Oc3c([N+](=O)[O-])ccc4c3CCC4OP(=O)(N3CC3)N3CC3)c2)n1` (stereo not shown) [Example 119]: the IC50 was below 10 nM in test [1] (Homo sapiens, NCI-H460, 72 h) and 644 nM in test [2].

In the case of `CSc1cccc(Oc2c([N+](=O)[O-])ccc3c2CC[C@H]3OP(=O)(N2CC2)N2CC2)c1` [Example 472], the IC50 was below 10 nM in test [1] and 583 nM in test [2].

With `O=[N+]([O-])c1cc2c(cc1Oc1cccc(-c3ccccc3)c1)C(OP(=O)(N1CC1)N1CC1)CC2` (single isomer, unassigned) [Example 168], the IC50 in test [1] (Homo sapiens, NCI-H460, 72 h) is below 10 nM; in test [2] it was 755 nM.

For the molecule `O=[N+]([O-])c1ccc2c(c1Oc1cccc(-c3ccccn3)c1)CC[C@H]2OP(=O)(N1CC1)N1CC1` [Example 296], the IC50 was below 10 nM in test [1] (Homo sapiens, NCI-H460, 72 h) and 976 nM in test [2].

Turning to `O=[N+]([O-])c1ccc2c(c1Oc1ccc(F)c(-n3ccc(F)n3)c1)CC[C@@H]2OP(=O)(N1CC1)N1CC1` [Example 442], the IC50 in test [1] (Homo sapiens, NCI-H460, 72 h) was below 10 nM; in test [2], 667 nM.

Take `CC(OP(=O)(N1CC1)N1CC1)c1cc2cc(Oc3cccc(C(=O)N4CCC4)c3)c([N+](=O)[O-])cc2o1` (stereo not shown) [Example 549]: the IC50 is 10 to 50 nM in test [1] and 5130 nM in test [2].

With `Cn1c(=O)oc2ccc(Oc3c([N+](=O)[O-])ccc4c3CCC4OP(=O)(N3CC3)N3CC3)cc21` (stereo not shown) [Example 378], the IC50 in test [1] (Homo sapiens, NCI-H460, 72 h) is below 10 nM; in test [2], 440 nM.

`O=[N+]([O-])c1ccc2c(c1Oc1ccc(F)c(-n3cc(F)cn3)c1)CC[C@H]2OP(=O)(N1CC1)N1CC1` [Example 420]: the IC50 is below 10 nM in test [1] (Homo sapiens, NCI-H460, 72 h) and 675 nM in test [2].

As for `C[C@H](OP(=O)(N1CC1)N1CC1)c1cc2cc(Oc3cccc(C(=O)N4CCC(F)(F)C4)c3)c([N+](=O)[O-])cc2o1` [Example 558], the IC50 in test [1] is 10 to 50 nM; in test [2], 3960 nM.

`O=[N+]([O-])c1ccc2c(c1Oc1cc(O)cc(OCC3CC3)c1)CC[C@@H]2OP(=O)(N1CC1)N1CC1` [Example 446, (S)-4-(3-(cyclopropylmethoxy)-5-hydroxyphenoxy)-5-nitro-2,3-dihydro-1H-inden-1-yl di(aziridin-1-yl)phosphinate]: the IC50 in test [1] (Homo sapiens, NCI-H460, 72 h) was below 10 nM; in test [2], 1210 nM.

Turning to `O=C(NC1CCC1)c1ccc(Oc2cc3c(cc2[N+](=O)[O-])CCC3OP(=O)(N2CC2)N2CC2)cc1` (stereo not shown) [Example 190], the IC50 is below 10 nM in test [1] (Homo sapiens, NCI-H460, 72 h) and 984 nM in test [2].

On to `O=[N+]([O-])c1ccc2c(c1Oc1ccc(F)c(-n3cncn3)c1)CC[C@@H]2OP(=O)(N1CC1)N1CC1` [Example 438], for which the IC50 in test [1] (Homo sapiens, NCI-H460, 72 h) is below 10 nM; in test [2] it was 416 nM.

(Values after patent publication US20260167656A1, “PHOSPHORAMIDATE COMPOUNDS AND USES THEREOF” (ALLORION THERAPEUTICS INC, priority 2022, published 2026).)
